Laboratory results: patent publication US20240148821A1, “PHARMACEUTICAL USE OF CYCLIC PEPTIDE COMPOUND” (CHUGAI SEIYAKU KABUSHIKI KAISHA, priority 2021, published 2024)
pIC50: −log10 of the molar value. Bridge positions count the residues as written; N and C are the ends. Square brackets hold non-standard residues; d marks the D form. Peptide text beside a SMILES is read from it. * marks the point of attachment. hPhe(3,5-F2-4-CF3) = N[C@@H](CCc1cc(F)c(C(F)(F)F)c(F)c1)C(=O)O; hPhe(3-Cl-4-CF3) = N[C@@H](CCc1ccc(C(F)(F)F)c(Cl)c1)C(=O)O; hPhe(3-F,4-CF3) = N[C@@H](CCc1ccc(C(F)(F)F)c(F)c1)C(=O)O; NMePhe(4-CF3) = CN[C@@H](Cc1ccc(C(F)(F)F)cc1)C(=O)O; hPhe(4-CF3) = N[C@@H](CCc1ccc(C(F)(F)F)cc1)C(=O)O; NMeAbu(4,4,4-F3) = CN[C@@H](CC(F)(F)F)C(=O)O; NMePhe(3-Cl) = CN[C@@H](Cc1cccc(Cl)c1)C(=O)O; NMePhe(4-Cl) = CN[C@@H](Cc1ccc(Cl)cc1)C(=O)O; NMePhe(3-F) = CN[C@@H](Cc1cccc(F)c1)C(=O)O; NMeAla(cPent) = CN[C@@H](CC1CCCC1)C(=O)O; NMeGly(cPent) = CN[C@H](C(=O)O)C1CCCC1; Phe(3-I) = N[C@@H](Cc1cccc(I)c1)C(=O)O; Pro(4,4-F2) = O=C(O)[C@@H]1CC(F)(F)CN1; NMeCha = CN[C@@H](CC1CCCCC1)C(=O)O; NMeChg = CN[C@H](C(=O)O)C1CCCCC1; NMeF = CN[C@@H](Cc1ccccc1)C(=O)O; NMeI = CC[C@H](C)[C@H](NC)C(=O)O; N(CH2CH2)2CF2 = FC1(F)CCN(*)CC1; NMeD = CN[C@@H](CC(=O)O)C(=O)O; NMeL = CN[C@@H](CC(C)C)C(=O)O; Oxazolidin(3-yl) = C1CN(*)CO1; NMeNva = CCC[C@H](NC)C(=O)O; NMeV = CN[C@H](C(=O)O)C(C)C; d(β3hA) = C[C@@H](N)CC(=O)O; dIva = CC[C@@](C)(N)C(=O)O; Pip = O=C(O)[C@@H]1CCCCN1; Iva = CC[C@](C)(N)C(=O)O; Morpholide = C1CN(*)CCO1; NMeA = CN[C@@H](C)C(=O)O; Nle = CCCC[C@H](N)C(=O)O; Piperidide = C1CCN(*)CC1; Pyrrolidide = C1CCN(*)C1; dNMeA = CN[C@H](C)C(=O)O; Ac5c = NC1(C(=O)O)CCCC1; Aze = O=C(O)[C@@H]1CCN1; Sar = CNCC(=O)O

test system: Human pancreatic cancer cell line AsPC-1 (G12D mutation Kras); assay: AsPC-1 cell growth inhibition (AsPC-1 CGI); assay type: cell-based; settings: read-out: AsPC-1 cell growth inhibition, 50% growth inhibitory concentration (IC50 value); 96 hours, CellTiter-Glo, values classified in ranges
Procedure: Test compounds were serially dilated with dimethyl sulfoxide, and 200 nL was then dispensed to a U-bottom 96-well plate using Labcyte Echo. […] The cell suspension was dispensed to a. plate containing a test compound at 100 μL per well and incubated at 37° C. in a 5% carbon dioxide gas incubator. 96 hours later, 80 μL of CellTiter-Glo (Promega) was added to each well and fluorescence was measured.

Row | Structure (SMILES) | pIC50
1 | CC[C@H](C)[C@@H]1NC(=O)[C@H](CC(C)C)N(C)C(=O)C[C@@H](C(=O)N2CCOC2)NC(=O)[C@H]([C@@H](C)CC)N(C)C(=O)C2(CCCC2)NC(=O)[C@@H]2CCCN2C(=O)[C@H](CCc2ccc(C(F)(F)F)c(Cl)c2)NC(=O)CN(C)C(=O)[C@H](CC2CCCCC2)N(C)C(=O)CN(C)C(=O)CN(C)C1=O [Compound 1247] ([NMeL]I[Sar][Sar][NMeCha][Sar][hPhe(3-Cl-4-CF3)]P[Ac5c][NMeI]D-{Oxazolidin(3-yl)}; lactam N-11) | < 6.30
2 | CC[C@H](C)[C@@H]1NC(=O)[C@H](CC(C)C)N(C)C(=O)C[C@@H](C)NC(=O)[C@H](C(C)C)N(C)C(=O)[C@@](C)(CC)NC(=O)[C@@H]2CCCN2C(=O)[C@H](CCc2ccc(C(F)(F)F)c(Cl)c2)NC(=O)CN(C)C(=O)[C@H](CC2CCCCC2)N(C)C(=O)CN(C)C(=O)CN(C)C1=O [Compound 275] (cyclo(I[Sar][Sar][NMeCha][Sar][hPhe(3-Cl-4-CF3)]P[dIva][NMeV][d(β3hA)][NMeL])) | < 6.30
3 | CC[C@H](C)[C@@H]1NC(=O)[C@H](CC(C)C)N(C)C(=O)C[C@@H](C(=O)N2CCCCC2)N(C)C(=O)[C@H](CC(C)C)N(C)C(=O)C2(CCCC2)NC(=O)[C@@H]2CCCN2C(=O)[C@H](CCc2ccc(C(F)(F)F)c(F)c2)NC(=O)CN(C)C(=O)[C@H](Cc2ccc(Cl)cc2)N(C)C(=O)CN(C)C(=O)CN(C)C1=O [Compound 1061] ([NMeL]I[Sar][Sar][NMePhe(4-Cl)][Sar][hPhe(3-F,4-CF3)]P[Ac5c][NMeL][NMeD]-Piperidide; lactam N-11) | < 6.30
4 | CCCC[C@@H]1NC(=O)[C@H](Cc2cccc(I)c2)NC(=O)CN(C)C(=O)[C@H](Cc2ccc(Cl)cc2)N(C)C(=O)CN(C)C(=O)CN(C)C(=O)[C@H]([C@@H](C)CC)NC(=O)[C@H](CC(C)C)N(C)C(=O)C[C@@H](C(=O)N2CCCCC2)N(C)C(=O)[C@H](CC(C)C)NC(=O)[C@H](Cc2cccc(Cl)c2)N(C)C1=O [Compound 1044] ([NMeL]I[Sar][Sar][NMePhe(4-Cl)][Sar][Phe(3-I)][Nle][NMePhe(3-Cl)]L[NMeD]-Piperidide; lactam N-11) | < 6.30
5 | CC[C@H](C)[C@@H]1NC(=O)[C@H](C)N(C)C(=O)C[C@@H](C)NC(=O)[C@H](C2CCCC2)N(C)C(=O)C2(CCCC2)NC(=O)[C@@H]2CCCN2C(=O)[C@H](CCc2ccc(C(F)(F)F)c(Cl)c2)NC(=O)CN(C)C(=O)[C@H](Cc2cccc(F)c2)N(C)C(=O)[C@@H]2CCCN2C(=O)CN(C)C1=O [Compound 194] (cyclo([Ac5c][NMeGly(cPent)][d(β3hA)][NMeA]I[Sar]P[NMePhe(3-F)][Sar][hPhe(3-Cl-4-CF3)]P)) | < 6.30
6 | CC[C@H](C)[C@@H]1NC(=O)[C@H](CC(F)(F)F)N(C)C(=O)C[C@@H](C(=O)N2CCOCC2)N(C)C(=O)[C@H](C2CCCCC2)N(C)C(=O)C2(CCCC2)NC(=O)[C@@H]2CC(F)(F)CN2C(=O)[C@H](CCc2ccc(C(F)(F)F)c(Cl)c2)NC(=O)CN(C)C(=O)[C@H](Cc2ccc(C(F)(F)F)cc2)N(C)C(=O)CN(C)C(=O)CN(C)C1=O [Compound 1182] ([NMeAbu(4,4,4-F3)]I[Sar][Sar][NMePhe(4-CF3)][Sar][hPhe(3-Cl-4-CF3)][Pro(4,4-F2)][Ac5c][NMeChg][NMeD]-Morpholide; lactam N-11) | ≥ 7.70
7 | CC[C@H](C)[C@@H]1NC(=O)[C@H](CC(C)C)N(C)C(=O)C[C@@H](C(=O)N2CCCCC2)NC(=O)[C@H](C2CCCCC2)N(C)C(=O)C2(CCCC2)NC(=O)[C@@H]2CCCN2C(=O)[C@H](CCc2ccc(C(F)(F)F)c(Cl)c2)NC(=O)CN(C)C(=O)[C@H](CC2CCCCC2)N(C)C(=O)CN(C)C(=O)CN(C)C1=O [Compound 1274] ([NMeL]I[Sar][Sar][NMeCha][Sar][hPhe(3-Cl-4-CF3)]P[Ac5c][NMeChg]D-Piperidide; lactam N-11) | < 6.30
8 | CCC[C@H]1C(=O)N[C@@H]([C@@H](C)CC)C(=O)N(C)CC(=O)N(C)CC(=O)N(C)[C@@H](CC2CCCCC2)C(=O)N(C)CC(=O)N[C@@H](CCc2cc(F)c(C(F)(F)F)c(F)c2)C(=O)N2CC(F)(F)C[C@H]2C(=O)NC2(CCCC2)C(=O)N(C)[C@@H](C2CCCCC2)C(=O)N(C)[C@H](C(=O)N2CCCC2)CC(=O)N1C [Compound 1160] ([NMeNva]I[Sar][Sar][NMeCha][Sar][hPhe(3,5-F2-4-CF3)][Pro(4,4-F2)][Ac5c][NMeChg][NMeD]-Pyrrolidide; lactam N-11) | ≥ 7.70
9 | CC[C@H](C)[C@@H]1NC(=O)[C@@H]2CCCCN2C(=O)C[C@@H](C)NC(=O)[C@H](C(C)C)N(C)C(=O)[C@H](Cc2ccccc2)N(C)C(=O)[C@H](CC(C)C)N(C)C(=O)[C@H](CCc2ccc(C(F)(F)F)cc2)NC(=O)CN(C)C(=O)[C@H](Cc2ccc(Cl)cc2)N(C)C(=O)CN(C)C(=O)CN(C)C1=O [Compound 1110] (cyclo(I[Sar][Sar][NMePhe(4-Cl)][Sar][hPhe(4-CF3)][NMeL][NMeF][NMeV][d(β3hA)][Pip])) | < 6.30
10 | CC[C@H](C)[C@@H]1NC(=O)[C@H](CC(C)C)N(C)C(=O)C[C@@H](C(=O)N2CCCCC2)N(C)C(=O)[C@H](C(C)C)N(C)C(=O)[C@](C)(CC)NC(=O)[C@@H]2CCCN2C(=O)[C@H](CCc2ccc(C(F)(F)F)c(Cl)c2)NC(=O)CN(C)C(=O)[C@H](CC2CCCCC2)N(C)C(=O)[C@@H]2CCN2C(=O)[C@H](C)N(C)C1=O [Compound 394] ([NMeL]I[NMeA][Aze][NMeCha][Sar][hPhe(3-Cl-4-CF3)]P[Iva][NMeV][NMeD]-Piperidide; lactam N-11) | < 6.30
11 | CC[C@H](C)[C@@H]1NC(=O)[C@H](C)N(C)C(=O)C[C@@H](C)NC(=O)[C@H](C2CCCC2)N(C)C(=O)C2(CCCC2)NC(=O)[C@@H]2CCCN2C(=O)[C@H](CCc2ccc(C(F)(F)F)c(Cl)c2)NC(=O)[C@@H](C)N(C)C(=O)[C@H](Cc2ccc(C(F)(F)F)cc2)N(C)C(=O)CN(C)C(=O)CN(C)C1=O [Compound 1520] (cyclo([Ac5c][NMeGly(cPent)][d(β3hA)][NMeA]I[Sar][Sar][NMePhe(4-CF3)][dNMeA][hPhe(3-Cl-4-CF3)]P)) | < 6.30
12 | CC[C@H](C)[C@@H]1NC(=O)[C@H](CC2CCCC2)N(C)C(=O)C[C@@H](C(=O)N2CCCC2)N(C)C(=O)[C@H]([C@@H](C)CC)N(C)C(=O)C2(CCCC2)NC(=O)[C@@H]2CCCN2C(=O)[C@H](CCc2ccc(C(F)(F)F)c(Cl)c2)NC(=O)CN(C)C(=O)[C@H](Cc2ccc(C(F)(F)F)cc2)N(C)C(=O)[C@@H]2CCN2C(=O)[C@H](C)N(C)C1=O [Compound 1183] ([NMeAla(cPent)]I[NMeA][Aze][NMePhe(4-CF3)][Sar][hPhe(3-Cl-4-CF3)]P[Ac5c][NMeI][NMeD]-Pyrrolidide; lactam N-11) | ≥ 7.70
13 | CC[C@H](C)[C@@H]1NC(=O)[C@H](CC(C)C)N(C)C(=O)C[C@@H](C(=O)N(C)C)N(C)C(=O)[C@H](C(C)C)N(C)C(=O)C2(CCCC2)NC(=O)[C@H](CC(=O)N2CCC(F)(F)CC2)N(C)C(=O)[C@H](CCc2ccc(C(F)(F)F)c(Cl)c2)NC(=O)CN(C)C(=O)[C@H](CC2CCCCC2)N(C)C(=O)CN(C)C(=O)CN(C)C1=O [Compound 218] ([NMeL]I[Sar][Sar][NMeCha][Sar][hPhe(3-Cl-4-CF3)][NMeD](N(CH2CH2)2CF2)[Ac5c][NMeV][NMeD]-NMe2; lactam N-11) | < 6.30
